Key:
[1] = molecular target: T1, RPA-ssDNA interaction (Homo sapiens, UniProt P15927+P27694+P35244); experiment: FRET titration of the RPA-Cy3-dT30-Cy5 complex; format: binding; conditions: range of tested concentrations
T1 construct: made in house
Source text: In the cell, ssDNA is typically found in complex with Replication protein A (RPA), the major eukaryotic ssDNA-binding protein essential for DNA replication, repair and recombination ([Wold, 1997]; [Oakley and Patrick, 2010]; [Chen and Wold, 2014]). The RPA-ssDNA complex is a physiologically relevant substrate for the RAD52-mediated strand annealing. […] RPA binds ssDNA with high affinity and extends the ssDNA to its contour length. In our assays such an extension manifests as a distinct FRET state of ~0.3, which is readily distinguished from a FRET state of ~0.48 of free Cy3-dT30-Cy5 ssDNA, as well as ~0.63 FRET of the stoichiometric ssDNA-RPA-RAD52 complex (see Figure 2—figure supplement 1 and ([Grimme and Spies, 2011]) for details). […] Both, however, inhibited the RAD52 binding to and wrapping of RPA-coated ssDNA with IC50 values identical to those determined without RPA (Figure 2e and Figure 3e).
In all experiments, the FRET values for each data point were corrected for the effects of the compounds on the respective substrate in the absence of RAD52.

[2] = tested on: GM01604 cells (hTERT-immortalized wild-type human fibroblasts); experiment: Neutral comet assay, MUS81/EME1/RAD52-dependent DSB formation; format: cell-based; conditions: GM01604, HU + UCN01
Source text: In human cells, RAD52 may perform both limited recombination-mediator function in the RAD51-dependent pathway ([Lok and Powell, 2012]; [Benson et al., 1998]; [Feng et al., 2011]) as well as additional RAD51-independent roles ([Lok and Powell, 2012]; [Murfuni et al., 2013]; [McIlwraith and West, 2008]). One of these HR independent roles of RAD52 involves stimulation of MUS81/EME1-dependent DSB formation at replication forks stalled by hydroxyurea (HU) treatment in the absence of cellular checkpoints ([Murfuni et al., 2013]). Since the most likely targets of these MUS81/EME1/RAD52-dependent DSBs are the DNA structures produced by RAD52 ([Murfuni et al., 2013]), we expected this activity to depend on the RAD52-ssDNA interaction (Figure 5a). To confirm this, we assessed DSB formation in checkpoint deficient cells using the neutral comet assay. These assays monitor MUS81/EME1/RAD52-dependent DSB formation upon induction of replication stress by HU treatment in primary fibroblasts immortalized by hTERT expression and treated with UNC01 to inhibit CHK1 kinase (Figure 5b). […] Importantly, these inhibitors recapitulate RAD52 depletion by inhibiting RAD52-MUS81-dependent DSBs at stalled replication forks (Figure 5a–b). […] It also confirms our previous supposition that the target of MUS81/EME1-mediated cleavage under these conditions are indeed the structures annealed by RAD52. […]
To induce RAD52-MUS81-dependent cleavage at arrested replication forks ([Murfuni et al., 2013]), hTERT-immortalized wild-type human fibroblasts (GM01604) were treated with 2 mM HU and 300 nM UCN01 for 6h, in the presence and absence of varying concentrations of ‘1’ or ‘6’. […] Slides were analyzed by a computerized image analysis system (Comet IV, Perceptive UK). To assess the quantity of DNA damage, computer-generated tail moment values (tail length x fraction of total DNA in the tail) were used. […] A minimum of 100 cells were analyzed for each compound concentration point.

[3] = tested on: MUS81; experiment: Anaphase bridges in aphidicolin-treated cells (MUS81 activity); format: cell-based, human; conditions: GM01604, 0.2 µM aphidicolin 24h, increasing concentration of compound
Description: Figure 5. Inhibiting the RAD52-ssDNA interaction interferes with RAD52/MUS81-mediated DSB formation essential for replication fork recovery in check point deficient cells. (a) Representative images showing fields of cells from the comet assay for untreated, as well as from UCN01 (300 nM) and HU (2 mM) treated cells in the presence and absence of ‘1’, ‘6’, and siRAD52. (b) ‘1’ and ‘6’ at 1 or 25 μM recapitulate RAD52 depletion. GM1604 cells, transfected or not with siRNAs against RAD52, were treated as indicated, in the presence or absence of the inhibitor. At the end of treatment, DSBs were analyzed by neutral comet assay. Data are presented as the mean ± SEM from two independent experiments; p values are shown in the graph when differences are statistically significant. (c–d) Inhibitors ‘1’ and ‘6’, respectively decrease the mean tail moment following HU treatment with IC50 values ranging from mid nanomolar to low micromolar. Cells were treated as in (b). Data are from three independent experiments. DOI: http://dx.doi.org/10.7554/eLife.14740.012 Figure 5—figure supplement 1. […] (a) GM01604 wild-type fibroblasts were transfected with CTRL or MUS81 siRNA. Forty eight hours after transfection the fibroblasts were lysed and analysed by WB with the indicated antibodies. […] (c) The presence of anaphase bridges, as shown in the representative images, was scored in DAPI-stained cells. […]

T1 sequence (P27694 whole entry): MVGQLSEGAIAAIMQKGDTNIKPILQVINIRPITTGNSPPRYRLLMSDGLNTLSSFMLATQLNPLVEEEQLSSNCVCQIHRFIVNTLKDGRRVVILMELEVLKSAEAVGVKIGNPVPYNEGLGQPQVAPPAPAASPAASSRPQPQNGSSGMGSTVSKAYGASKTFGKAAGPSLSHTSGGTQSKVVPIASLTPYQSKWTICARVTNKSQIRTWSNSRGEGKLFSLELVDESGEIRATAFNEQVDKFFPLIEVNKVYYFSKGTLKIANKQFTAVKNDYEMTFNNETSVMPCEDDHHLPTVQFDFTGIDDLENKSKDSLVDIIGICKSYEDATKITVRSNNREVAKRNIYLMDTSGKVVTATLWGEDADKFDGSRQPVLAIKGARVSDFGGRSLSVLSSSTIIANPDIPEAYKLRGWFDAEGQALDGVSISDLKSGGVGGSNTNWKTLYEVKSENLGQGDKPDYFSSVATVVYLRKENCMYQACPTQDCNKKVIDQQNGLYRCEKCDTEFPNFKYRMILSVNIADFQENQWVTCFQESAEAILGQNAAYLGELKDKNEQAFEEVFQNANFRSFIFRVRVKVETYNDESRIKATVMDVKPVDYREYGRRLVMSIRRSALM
T1 sequence (P15927 whole entry): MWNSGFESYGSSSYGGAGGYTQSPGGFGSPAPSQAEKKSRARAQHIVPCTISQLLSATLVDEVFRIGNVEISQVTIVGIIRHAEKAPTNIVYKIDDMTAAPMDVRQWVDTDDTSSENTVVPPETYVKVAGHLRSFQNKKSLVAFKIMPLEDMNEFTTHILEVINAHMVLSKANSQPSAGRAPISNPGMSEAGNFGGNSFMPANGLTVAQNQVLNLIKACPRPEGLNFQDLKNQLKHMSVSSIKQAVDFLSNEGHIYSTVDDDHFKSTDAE
T1 sequence (P35244 whole entry): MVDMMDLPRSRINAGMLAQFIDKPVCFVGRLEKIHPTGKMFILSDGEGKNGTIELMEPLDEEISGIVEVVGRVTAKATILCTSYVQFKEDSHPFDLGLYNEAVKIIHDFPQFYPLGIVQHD

Compound: Oc1cc(O)c2c(c1)O[C@H](c1cc(O)c(O)c(O)c1)[C@H](O)C2 [Compound 1, (−)−Epigallocatechin]
- effect on the RPA-ssDNA interaction [1]: neither ‘1’ nor ‘6’ affected the RPA-ssDNA interaction
- concentration sufficient for same level of DSB reduction as siRNA treatment [2]: 1 µM
- concentration with same reduction in DSBs as siRNA depletion of RAD52 [2]: 500 nM
- effect on MUS81 activity (anaphase bridges) [3]: does not affect MUS81 activity

Source: PMC4982760, “Small-molecule inhibitors identify the RAD52-ssDNA interaction as critical for recovery from replication stress and for survival of BRCA2 deficient cells” (eLife, 2016)
